Test results reported in patent publication US8044089B2, “3-3-di-substituted-oxindoles as inhibitors of translation initiation” (President and Fellows of Harvard College, priority 2004, dated 2011).

What was measured:
[1] = tested on: intracellular Ca^2+ stores; assay: Ca2+ release from intracellular stores (FURA-2AM loaded cells); type: cell-based; set-up: key to Ca^2+ (Ca^2+ release from intracellular stores): a “+” denotes release; a “+/−” denotes inconclusive
Description: (§1) As a non-limiting example, compounds 1272 and 1273 (set forth in Table 1) were synthesized starting from 3-bromoaniline, which upon condensation with hydroxylamine and chloral hydrate followed by concentrated sulfuric acid yielded an inseparable regioisomeric mixture of 4- and 6-bromo isatins. The addition of the two phenyl groups to the three position of the oxindole allowed easy chromatographic separation of the 4- and 6-bromo-3,3-diphenyloxindoles 1272 and 1273. Table 1 sets forth biological data for diaryloxindole compounds including, but not limited to 1272 and 1273. For Tables 1-14, Ca^2+ refers to Ca^2+ release from intracellular stores where a “+” denotes release and a “+/−” denotes inconclusive; eIF2α-P refers to phosphorylation of eIF2α measured by Western blot; SRB refers to the inhibitory concentration to reduce cell growth by 50% (IC50) for growth inhibition of A549 lung cancer cells; and n.d. is not determined.
(§2) Without intending to be bound by theory, the mechanism of action of translation initiation inhibitors is set forth in FIG. 1, and includes the depletion (complete or partial depletion) of intracellular calcium (Ca^2+) stores and phosphorylation of eIF2α. Compounds synthesized using the approaches described herein were screened for their ability to partially deplete intracellular Ca^2+ stores using FURA-2AM loaded cells (Benzaquen et al. (1995) Nature Medicine, 1:534, incorporated herein by reference in its entirety for all purposes). A limited subset of compounds were further screened for their ability to deplete endoplasmic reticulum (ER) Ca^2+. The Ca^2+ content of the ER was monitored using ER-targeted, Ca^2+ sensitive, recombinant proteins. These recombinant proteins emitted light by fluorescent resonance energy transfer (FRET) as a function of the Ca^2+ content of the medium. Such assays are previously described (Miyawaki, A.; Mizuno, H.; Llopis, J.; Tsien, R. Y.; Jalink, K. Cameleons as cytosolic and intra-organellar calcium probes, Oxford University Press: Oxford, London, 2001; pp 3-16, incorporated herein by reference in its entirety for all purposes). Compounds that depleted Ca^2+ were further evaluated for their ability to phosphorylate eIF2α. eIF2α phosphorylation was measured by Western blot analysis using the phospho-specific anti-eIF2α antibody, as previously described (Aktas et al. (1998) Proc. Natl. Acad. Sci. USA, 95:8280, incorporated herein by reference in its entirety for all purposes).

eIF2α = eIF2α phosphorylation measured by Western blot; type: cell-based; details: for eIF2α-P (phosphorylation of eIF2α measured by Western blot): unit or reference not given
Description: as §1, §2

A549 lung cancer cells = assay: SRB growth inhibition of A549 lung cancer cells; type: cell-based, human; details: A549 lung cancer cells; unit inferred; read-out: SRB (IC50 for growth inhibition of A549 lung cancer cells)
Description: As a non-limiting example, compounds 1272 and 1273 (set forth in Table 1) were synthesized starting from 3-bromoaniline, which upon condensation with hydroxylamine and chloral hydrate followed by concentrated sulfuric acid yielded an inseparable regioisomeric mixture of 4- and 6-bromo isatins. The addition of the two phenyl groups to the three position of the oxindole allowed easy chromatographic separation of the 4- and 6-bromo-3,3-diphenyloxindoles 1272 and 1273. Table 1 sets forth biological data for diaryloxindole compounds including, but not limited to 1272 and 1273. For Tables 1-14, Ca^2+ refers to Ca^2+ release from intracellular stores where a “+” denotes release and a “+/−” denotes inconclusive; eIF2α-P refers to phosphorylation of eIF2α measured by Western blot; SRB refers to the inhibitory concentration to reduce cell growth by 50% (IC50) for growth inhibition of A549 lung cancer cells; and n.d. is not determined. […]

SMILES	Ca^2+ (Ca^2+ release from intracellular stores) [1]	eIF2α-P (phosphorylation of eIF2α measured by Western blot) (eIF2α)	IC50 (A549 lung cancer cells)	eIF2α phosphorylation (in words) (eIF2α)
CC(C)(C)c1ccc(O)c(C2(c3ccccc3)C(=O)Nc3ccc(Cl)cc32)c1 (centres unmarked) [Compound 1215]	+/−	1.1	3 µM	
CC(C)(C)c1cccc(C2(c3ccccc3)C(=O)Nc3ccccc32)c1 (centres unmarked) [Compound 1217]	+	1.5	4 µM	
CC(C)(C)c1ccc(O)c(C2(c3cccc(Cl)c3)C(=O)Nc3ccccc32)c1 (centres unmarked) [Compound 1221]	+	3.24	3 µM	
CC(C)(C)c1ccc(O)c(C2(c3cccc(F)c3)C(=O)Nc3ccccc32)c1 (centres unmarked) [Compound 1223]	+	4.41	7 µM	
Cc1cccc(C2(c3cc(C(C)(C)C)ccc3O)C(=O)Nc3ccccc32)c1 (centres unmarked) [Compound 1224]	+	1.74	9 µM	
Cc1ccccc1C1(c2cc(C(C)(C)C)ccc2O)C(=O)Nc2ccccc21 (centres unmarked) [Compound 1225]	+	1.69	4 µM	
COc1ccccc1C1(c2cc(C(C)(C)C)ccc2O)C(=O)Nc2ccccc21 (centres unmarked) [Compound 1226]	+	2.22	3 µM	
CC(C)(C)c1ccc(O)c(C2(c3ccccc3)C(=O)Nc3c(C(F)(F)F)cccc32)c1 (centres unmarked) [Compound 1230]	+/−	0.41	3 µM	
CC(C)(C)c1ccc(O)c(C2(c3ccccc3)C(=O)Nc3ccc(N)cc32)c1 (centres unmarked) [Compound 1231]	+	1.46	14 µM	
CC(C)(C)c1ccc(O)c(C2(c3ccccc3)C(=O)Nc3cccc(Br)c32)c1 (centres unmarked) [Compound 1234]	+	2.57	6 µM	
CC(C)(C)c1ccc(O)c(C2(c3ccccc3)C(=O)Nc3cc(Br)ccc32)c1 (centres unmarked) [Compound 1235]	+	3.2	4 µM	
C=CCN1C(=O)C(c2ccccc2)(c2cc(C(C)(C)C)ccc2O)c2ccccc21 (centres unmarked) [Compound 1236]	+/−	2.23	3 µM	
COc1ccccc1C1(c2ccc(C(C)(C)C)cc2)C(=O)Nc2ccccc21 (centres unmarked) [Compound 1237]	+	1.3	17 µM	
CC(C)(C)c1ccc(C2(c3ccccc3O)C(=O)Nc3ccccc32)cc1 (centres unmarked) [Compound 1239]	+	1.88	8 µM	
O=C1Nc2ccccc2C1(c1ccccc1)c1ccc(O)c(C(F)(F)F)c1 (centres unmarked) [Compound 1242]	+	2.72	14 µM	
O=C1Nc2ccccc2C1(c1ccccc1)c1ccc(O)c(F)c1 (centres unmarked) [Compound 1244]	+	1.38	12 µM	
CC(C)(C)c1ccc(O)c(C2(c3ccccc3)C(=O)Nc3c(I)cccc32)c1 (centres unmarked) [Compound 1253]	+	2.05	6 µM	
CCc1ccc2c(c1)C(c1ccccc1)(c1cc(C(C)(C)C)ccc1O)C(=O)N2 (centres unmarked) [Compound 1254]	+	2.12	4 µM	

SMILES	Ca^2+ (Ca^2+ release from intracellular stores) [1]	eIF2α-P (phosphorylation of eIF2α measured by Western blot) (eIF2α)	IC50 (A549 lung cancer cells)	eIF2α phosphorylation (in words) (eIF2α)
CCc1cccc2c1NC(=O)C2(c1ccccc1)c1cc(C(C)(C)C)ccc1O (centres unmarked) [Compound 1256]	+	1.3	3 µM	
CCc1cccc2c1C(c1ccccc1)(c1cc(C(C)(C)C)ccc1O)C(=O)N2 (centres unmarked) [Compound 1257]	+	1.11	10 µM	
CCc1ccc2c(c1)NC(=O)C2(c1ccccc1)c1cc(C(C)(C)C)ccc1O (centres unmarked) [Compound 1258]	+	3.13	4 µM	
O=C1Nc2ccc(I)cc2C1(c1ccccc1)c1ccccc1 [Compound 1264]	+	2.53	9 µM	
O=C1Nc2ccc([N+](=O)[O-])cc2C1(c1ccccc1)c1ccccc1 [Compound 1265]	+/−	2.35	14 µM	
CCc1ccc2c(c1)C(c1ccccc1)(c1ccccc1)C(=O)N2 [Compound 1269]	+	1.64	> 20 µM	
CCc1cccc2c1C(c1ccccc1)(c1ccccc1)C(=O)N2 [Compound 1270]	+	1.68	> 20 µM	
CCc1ccc2c(c1)NC(=O)C2(c1ccccc1)c1ccccc1 [Compound 1271]	+	1.58	4 µM	
O=C1Nc2cccc(Br)c2C1(c1ccccc1)c1ccccc1 [Compound 1272]	+	1.63	8 µM	none of the compounds exhibited an increase in eIF2α phosphorylation relative to compound 1392
O=C1Nc2cc(Br)ccc2C1(c1ccccc1)c1ccccc1 [Compound 1273]	+	1.72	6 µM	none of the compounds exhibited an increase in eIF2α phosphorylation relative to compound 1392
CC(C)(C)c1ccc(O)c(C2(Cc3ccccc3)C(=O)Nc3ccccc32)c1 (centres unmarked) [Compound 1275]	+/−	1.01	13 µM	
C#CC1(c2cc(C(C)(C)C)ccc2O)C(=O)Nc2ccccc21 (centres unmarked) [Compound 1276]	+	0.75	13 µM	
Cc1ccc(O)c(C2(c3ccccc3)C(=O)Nc3ccccc32)c1 (centres unmarked) [Compound 1278]	+	3.33	8 µM	
CCCCCCCc1ccc(O)c(C2(c3ccccc3)C(=O)Nc3ccccc32)c1 (centres unmarked) [Compound 1279]	+/−	3.49	3 µM	
CCCCCCCCCc1ccc(O)c(C2(c3ccccc3)C(=O)Nc3ccccc32)c1 (centres unmarked) [Compound 1280]	+/−	3.89	3 µM	
CC(C)Cc1ccc(O)c(C2(c3ccccc3)C(=O)Nc3ccccc32)c1 (centres unmarked) [Compound 1281]	+	7.94	3 µM	
CC(C)c1ccc(O)c(C2(c3ccccc3)C(=O)Nc3ccccc32)c1 (centres unmarked) [Compound 1282]	+	4.96	4 µM	
CCCc1ccc(O)c(C2(c3ccccc3)C(=O)Nc3ccccc32)c1 (centres unmarked) [Compound 1283]	+	7.67	3 µM	
